Experimental data: US20220389013A1, “PYRIDOPYRIMIDINONE COMPOUNDS AND APPLICATIONS THEREOF” (BeBetter Med Inc., priority 2020, published 2022)

What was measured:
H358 (KRAS G12C) = experiment: Tumor cell proliferation inhibition assay (CellTiter-Glo), H358; type: cell-based, Human; conditions: Homo sapiens, NCI-H358, 72 h, 10% fetal bovine serum
Protocol: (§1) The H358, H23 or MIA-Paca2 cells were digested, centrifuged and resuspended, and the cell density was measured with a Scepter automatic cell counter. Cells were diluted to a solution containing 44,000 cells per milliliter, then added to a 96-well culture plate at 90 μL per well. The 96-well plate was placed in a 5% CO2 incubator at 37° C., and after the cells were cultured for 24 hours, different concentrations of the compounds to be tested were added. Cells were incubated with compounds in the presence of 10% fetal bovine serum for 72 hours. The inhibition of cell growth was assessed by measuring ATP levels by using the CellTiter-Glo Luminescent Cell Viability Assay Kit (details in manufacturer's instructions). In brief, 30 μL of CellTiter-Glo reagent was added to each well and the plate was shaken for 10 minutes to induce cell lysis, then the fluorescent signal was detected and recorded with a Fluoroskan Ascent FL (Thermo). Maximum signal values were obtained from cells treated with DMSO for 72 hours. Minimum signal values were obtained with medium only (zero cell number). Inhibition rate %=(maximum signal value-compound signal value)/(maximum signal value-minimum signal value)×100%. Data were processed by using Graphpad prism5 software. IC50 values were calculated using a sigmoidal dose-response curve.

MIA-Paca2 (KRAS G12C) = experiment: Tumor cell proliferation inhibition assay (CellTiter-Glo), MIA-Paca2; type: cell-based, Human; conditions: Homo sapiens, MIA PaCa-2, 72 h, 10% fetal bovine serum
Protocol: as §1

IC50 (H358 (KRAS G12C))	IC50 (MIA-Paca2 (KRAS G12C))	melting point	Structure (SMILES)
10 to 50 nM	100 to 500 nM	151 to 163 °C	C=CC(=O)N1CCN(c2nc(=O)n(-c3c(C)ccnc3C(C)C)c3nc(-c4c(C)ccc5ccoc45)c(F)cc23)[C@@H](C)C1 [Compound 108, 4-((S)-4-acryloyl-2-methylpiperazin-1-yl)-6-fluoro-1-(2-isopropyl-4-methylpyridin-3-yl)-7-(6-methylbenzofuran-7-yl)pyrido[2,3-d]pyrimidin-2(1H)-one]
10 to 50 nM	50 to 100 nM	146 to 149 °C	C=CC(=O)N1CCN(c2nc(=O)n(-c3c(C#N)cccc3C(C)C)c3nc(-c4c(F)ccc5ccoc45)c(F)cc23)[C@@H](C)C1 [Compound 123, 2-(4-((S)-4-acryloyl-2-methylpiperazin-1-yl)-6-fluoro-7-(6-fluorobenzofuran-7-yl)-2-oxopyrido[2,3-d]pyrimidin-1(2H)-yl)-3-isopropylbenzonitrile]
> 500 nM	> 500 nM	155 to 157 °C	C/C=C/C(=O)N1CCN(c2nc(=O)n(-c3c(C)ccnc3C(C)C)c3nc(-c4cc5ccoc5cc4F)c(F)cc23)[C@@H](C)C1 [Compound 113, (S,E)-4-(4-(but-2-enoyl)-2-methylpiperazin-1-yl)-6-fluoro-7-(6-fluorobenzofuran-5-yl)-1-(2-isopropyl-4-methylpyridin-3-yl)pyrido[2,3-d]pyrimidin-2(1H)-one]
50 to 100 nM	50 to 100 nM	133 to 136 °C	C=CC(=O)N1CCN(c2nc(=O)n(-c3c(C)nc(C)nc3C(C)C)c3nc(-c4c(F)ccc5ccoc45)c(F)cc23)[C@@H](C)C1 [Compound 117, 4-((S)-4-acryloyl-2-methylpiperazin-1-yl)-6-fluoro-7-(6-fluorobenzofuran-7-yl)-1-(4-isopropyl-2,6-dimethylpyrimidin-5-yl)pyrido[2,3-d]pyrimidin-2(1H)-one]
50 to 100 nM	100 to 500 nM	146 to 149 °C	C=CC(=O)N1CCN(c2nc(=O)n(-c3c(CO)cccc3C(C)C)c3nc(-c4c(F)ccc5ccoc45)c(F)cc23)[C@@H](C)C1 [Compound 126, 4-((S)-4-acryloyl-2-methylpiperazin-1-yl)-6-fluoro-7-(6-fluorobenzofuran-7-yl)-1-(2-(hydroxymethyl)-6-isopropylphenyl)pyrido[2,3-d]pyrimidin-2(1H)-one]
100 to 500 nM	> 500 nM	158 to 162 °C	C=CC(=O)N1CCN(c2nc(=O)n(-c3c(C)ccnc3C(C)C)c3nc(-c4c(F)ccc5ncsc45)c(F)cc23)[C@@H](C)C1 [Compound 78, 4-((S)-4-acryloyl-2-methylpiperazin-1-yl)-6-fluoro-7-(6-fluorobenzo[d]thiazol-7-yl)-1-(2-isopropyl-4-methylpyridin-3-yl)pyrido[2,3-d]pyrimidin-2(1H)-one]
10 to 50 nM	50 to 100 nM	148 to 150 °C	C=CC(=O)N1CCN(c2nc(=O)n(-c3c(C)ccnc3C(C)C)c3nc(-c4c(F)ccc5ccsc45)c(F)cc23)[C@@H](C)C1 [Compound 71, 4-((S)-4-Acryloyl-2-methylpiperazin-1-yl)-6-fluoro-7-(6-fluorobenzo[b]thiophen-7-yl)-1-(2-isopropyl-4-methylpyridin-3-yl)pyrido[2,3-d]pyrimidin-2(1H)-one]
> 500 nM	> 500 nM	136 to 138 °C	COC/C=C/C(=O)N1CCN(c2nc(=O)n(-c3c(C)ccnc3C(C)C)c3nc(-c4cc5ccoc5cc4F)c(F)cc23)[C@@H](C)C1 [Compound 115, (S,E)-6-fluoro-7-(6-fluorobenzofuran-5-yl)-1-(2-isopropyl-4-methylpyridin-3-yl)-4-(4-(4-methoxybut-2-enoyl)-2-methylpiperazin-1-yl)pyrido[2,3-d]pyrimidin-2(1H)-one]
